What all share (assay): Bliss excess, mean over the matrix (fraction); higher = more synergy
The subject of experiment [1] is CML-T1 (Chronic Myelogenous Leukemia). The method, boiled down: (§1)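 After 24 hours at 37°C and 5% CO2 in 1536-well plates, cells in DMEM/F12 or RPMI plus 10% FBS received two-drug dose matrices for 72 hours. Viability came from CellTiter-Glo 2.0 luminescence and was scaled as inhibition, anchored at 0 by vehicle wells and at 1 by blank wells. Combination Emax is taken as the second-highest inhibition in the matrix, and Bliss excess as the observed combination effect less EA + EB − EA·EB, with EA and EB the single-agent effects.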

In experiment [2] the test system is LAMA-84 (Chronic Myelogenous Leukemia). The method, boiled down:
as §1

Experiment [3] relates to EB-3 (Burkitt's Lymphoma). The essentials:
as §1

The subject of experiment [4] is AN3-CA (Endometrial Carcinoma). The method, boiled down: as §1
The subject of experiment [5] is KYSE-70 (Esophageal Squamous Cell Carcinoma). The essentials:
as §1

Experiment [6] relates to NCI-H1755 (Lung Adenocarcinoma). The essentials:
as §1

In experiment [7] the test system is Becker (Low Grade Glioma). The essentials: as §1
Experiment [8] concerns RERF-LC-KJ (Lung Adenocarcinoma). The essentials:
as §1

In experiment [9] the test system is Caov-3 (Ovarian Carcinoma). The essentials: as §1
The subject of another experiment is ES-2 (Ovarian Carcinoma). The method, boiled down: as §1
Experiment [10] concerns NCI-H1623 (Lung Adenocarcinoma). The essentials: as §1
The test system of experiment [11] is SW684 (Other Solid Carcinomas). The essentials:
as §1

Experiment [12] relates to BALL-1 (B-Lymphoblastic Leukemia). The essentials:
as §1

In experiment [13] the test system is LOUCY (T-Lymphoblastic Leukemia). The essentials:
as §1

Experiment [14] deals with SJRH30 (Rhabdomyosarcoma). The method, boiled down: as §1
For experiment [15], the system named is NCI-H810 (Non-Small Cell Lung Carcinoma). The essentials:
as §1

The subject of experiment [16] is Calu-6 (Non-Small Cell Lung Carcinoma). The essentials: as §1
Experiment [17] concerns FLO-1 (Esophageal Adenocarcinoma). The method, boiled down: as §1
In experiment [18] the test system is NCI-H1563 (Lung Adenocarcinoma). The method, boiled down:
as §1

Experiment [19] deals with NCI-H196 (Small Cell Lung Carcinoma). The essentials: as §1

`CCN(CCO)CCCOc1ccc2c(Nc3cc(CC(=O)Nc4cccc(F)c4)[nH]n3)ncnc2c1` [AZD2811] + O=C(c1cc(Cc2n[nH]c(=O)c3ccccc23)ccc1F)N1CCN(C(=O)C2CC2)CC1 [Olaparib] (first compound max 1 µM, 7x7, partner max 10 µM): the Bliss excess in experiment [1] is 0.029; in experiment [2], 0.0269; in experiment [3] it was -0.0307; in experiment [4] it was -0.0011; in experiment [5], 0.0005; in experiment [6], 0.0146. The Bliss excess was -0.0371 in experiment [7]; -0.0471 in [8]; -0.0444 in [9]; -0.0182 in the experiment on ES-2 (Ovarian Carcinoma); -0.0526 in [10]; -0.0219 in experiment [11]. For the same compound, the Bliss excess in [12] is 0.147; in [13], -0.0463; in [14] it was 0.0189; in experiment [15], -0.016; in experiment [16] it was 0.0004; in [17], -0.0153. The Bliss excess in experiment [18] is -0.0221; in experiment [19] it was -0.0193.
For `CN(CCO)CC[C@H](CSc1ccccc1)Nc1ccc(S(=O)(=O)NC(=O)c2ccc(N3CCC([C@@H](O)c4ccccc4-c4ccc(Cl)cc4)CC3)cc2)cc1S(=O)(=O)C(F)(F)F` [AZD4320] + C1CN(CCC1(C(=O)N[C@@H](CCO)C2=CC=C(C=C2)Cl)N)C3=NC=NC4=C3C=CN4 [Capivasertib] (first compound max 1 µM, 7x7, partner max 3 µM), the Bliss excess in experiment [1] is 0.0023; in [2], -0.0418; in [3], -0.0462; in [4] it was -0.0186; in experiment [5], -0.0273; in experiment [6], -0.0221. The Bliss excess in [7] was -0.0355; in experiment [8], -0.0282; in [9], -0.0309; in the experiment on ES-2 (Ovarian Carcinoma), -0.0346; in experiment [10] it was -0.002; in experiment [11], -0.0619. The Bliss excess in experiment [12] is 0.0012; in [13] it was 0.0753; in experiment [14], 0.0085; in experiment [15] it was -0.0595; in experiment [16], 0.0004; in [17], -0.039. Moreover, the Bliss excess is -0.0423 in [18] and -0.0297 in [19].
Turning to `CN(CCO)CC[C@H](CSc1ccccc1)Nc1ccc(S(=O)(=O)NC(=O)c2ccc(N3CCC([C@@H](O)c4ccccc4-c4ccc(Cl)cc4)CC3)cc2)cc1S(=O)(=O)C(F)(F)F` [AZD4320] + C=CCn1c(=O)c2cnc(Nc3ccc(N4CCN(C)CC4)cc3)nc2n1-c1cccc(C(C)(C)O)n1 [AZD1775] (first compound max 1 µM, partner max 1 µM), the Bliss excess in experiment [1] is -0.0082; in [2], 0.083; in experiment [3] it was -0.0269; in [4], -0.0004; in experiment [5], -0.0011; in experiment [6], -0.0201. Moreover, the Bliss excess in experiment [7] is 0.0046; in [8], -0.0076; in experiment [9] it was 0.0779; with ES-2 (Ovarian Carcinoma) it was 0.0065; in experiment [10], 0.0318; in experiment [11] it was -0.0416. Further, the Bliss excess in experiment [12] was determined as 0.0065; in [13], 0.002; in [14] it was 0.0076; in experiment [15], 0.0105; in [16], 0.0019; in [17], 0.0293. The Bliss excess in experiment [18] was -0.0024; in [19], 0.0268.
As for `CN(CCO)CC[C@H](CSc1ccccc1)Nc1ccc(S(=O)(=O)NC(=O)c2ccc(N3CCC([C@@H](O)c4ccccc4-c4ccc(Cl)cc4)CC3)cc2)cc1S(=O)(=O)C(F)(F)F` [AZD4320] + CCN(CCO)CCCOc1ccc2c(Nc3cc(CC(=O)Nc4cccc(F)c4)[nH]n3)ncnc2c1 [AZD2811] (first compound max 1 µM, 7x7, partner max 1 µM), the Bliss excess is 0.0624 in [1]; 0.0319 in experiment [2]; -0.0065 in experiment [3]; 0.101 in experiment [4]; 0.0483 in [5]; -0.0024 in [6]. Also, the Bliss excess in experiment [7] is -0.027; in experiment [8], -0.028; in experiment [9], 0.0419; with ES-2 (Ovarian Carcinoma), -0.0208; in experiment [10] it was -0.0045; in experiment [11], -0.0717. Further, the Bliss excess in [12] is 0.14; in [13], -0.0011; in experiment [14], 0.108; in experiment [15], 0.0178; in experiment [16] it was -0.0023; in experiment [17], 0.0895. In addition, the Bliss excess in experiment [18] is -0.0002; in experiment [19], -0.0513.
Take `CN(CCO)CC[C@H](CSc1ccccc1)Nc1ccc(S(=O)(=O)NC(=O)c2ccc(N3CCC([C@@H](O)c4ccccc4-c4ccc(Cl)cc4)CC3)cc2)cc1S(=O)(=O)C(F)(F)F` [AZD4320] + CN(C)CCCOc1ccc(-c2ccc3ncc4c(c3c2)n(C2CCOCC2)c(=O)n4C)cn1 [AZD0156] (first compound max 1 µM, 7x7, partner max 1 µM): the Bliss excess was 0.013 in experiment [1]; -0.0089 in experiment [2]; -0.0389 in experiment [3]; -0.0153 in experiment [4]; -0.0124 in experiment [5]; -0.0164 in experiment [6]. For the same compound, the Bliss excess in experiment [7] is -0.035; in experiment [8], -0.0413; in [9], -0.0198; in the experiment on ES-2 (Ovarian Carcinoma) it was -0.0259; in experiment [10], -0.071; in experiment [11] it was -0.0641. The Bliss excess in [12] is -0.0185; in experiment [13] it was -0.006; in [14] it was 0.0144; in experiment [15] it was -0.0328; in [16], -0.0156; in experiment [17] it was 0.0007. Moreover, the Bliss excess is -0.0496 in [18] and -0.0414 in experiment [19].
For `CN(CCO)CC[C@H](CSc1ccccc1)Nc1ccc(S(=O)(=O)NC(=O)c2ccc(N3CCC([C@@H](O)c4ccccc4-c4ccc(Cl)cc4)CC3)cc2)cc1S(=O)(=O)C(F)(F)F` [AZD4320] + C[C@@H]1COCCN1C2=NC(=NC(=C2)C3(CC3)[S@](=N)(=O)C)C4=C5C=CNC5=NC=C4 [AZD6738] (first compound max 1 µM, 7x7, partner max 10 µM), the Bliss excess in experiment [1] was 0.0149; in [2] it was -0.0093; in experiment [3], -0.0287; in [4] it was -0.0091; in [5], -0.0096; in experiment [6], -0.0214. For the same compound, the Bliss excess was -0.0186 in [7]; -0.0377 in [8]; -0.0186 in [9]; -0.0061 in the experiment with ES-2 (Ovarian Carcinoma); -0.0101 in experiment [10]; -0.0548 in [11]. The Bliss excess in experiment [12] was 0.0096; in experiment [13], -0.0092; in experiment [14] it was 0.0213; in experiment [15], -0.0762; in experiment [16], -0.0258; in [17], -0.0574. Also, the Bliss excess in [18] was 0.0051; in [19] it was -0.0112.

The values are drawn from the supplement of paper PMC11061612.
